Lines tolerant data for one compound are collected here from patent publication US6750378B2, “Maize H3C4 promoter combined with the first intron of rice actin, chimeric gene comprising it and transformed plant” (Rhone-Poulenc Agro, priority 1997, dated 2004).

Experiment [1] relates to maize lines transformed according to the invention (H3C4 promoter + first intron of rice actin). The experiment can be described thus: Comparative study of herbicide tolerance, maize lines transformed according to the invention (rice actin intron). Format: in vivo. The following applies: 20 maize lines, spraying 200 g of active material per hectare (600 μg per tub). On the procedure:
(§1) 800 ml of Fontainebleau sand are placed in a tub of sides 15×20 cm. These tubs are then sprinkled with water and kept moist by supplying a nutrient solution consisting of 5 ml of Quinoligo (Quinoline) per liter of water. Twenty maize seeds are placed in the tubs, which are then treated with isoxaflutole by spraying at a rate of 100 g of active material per hectare (300 μg of active material per tub). The tubs are then cultured in a greenhouse. The phytotoxicity is determined 14 [lacuna] after planting. […] A comparative study was carried out with 20 maize lines transformed according to the invention and 20 maize lines transformed with a corresponding gene for which the sequence encoding the first intron of rice actin has been replaced with the sequence encoding the maize adh I intron. After treating by spraying very high doses of isoxafutole at a rate of 200 g of active material per hectare (600 μg of active material per tub), the following results are obtained: […]

The subject of experiment [2] is maize lines transformed with corresponding gene with maize adh I intron. The experiment can be described thus: Comparative study of herbicide tolerance, maize lines transformed with the corresponding gene with maize adh I intron. Particulars: 20 maize lines, spraying 200 g of active material per hectare (600 μg per tub). Format: in vivo. On the procedure:
as §1

On to `CS(=O)(=O)c1cc(C(F)(F)F)ccc1C(=O)c1cnoc1C1CC1` [isoxaflutole], for which the values for the lines tolerant in experiment [1] and in experiment [2] were 8/20 and 3/20, respectively.
